How the values were obtained:
Details in all cases: 1 µM; inhibitor
BRSK2 = BRSK2 (Homo sapiens, UniProt Q8IWQ3)
HRI = HRI (Homo sapiens, UniProt Q9BQI3)
CK1a = CK1a (Homo sapiens, UniProt P48729)
MKK4 = MKK4 (Homo sapiens, UniProt P45985)
EPHA8 = EPHA8 (Homo sapiens, UniProt P29322)
MAP3K10 = MAP3K10 (Homo sapiens, UniProt Q02779)
DAPK2 = DAPK2 (Homo sapiens, UniProt Q9UIK4)
p38g = p38g (Homo sapiens, UniProt P53778)
WNK2 = WNK2 (Homo sapiens, UniProt Q9Y3S1)
CDK17 = CDK17 (Homo sapiens, UniProt Q00537)
Chain of CDK17 (Q00537 whole entry): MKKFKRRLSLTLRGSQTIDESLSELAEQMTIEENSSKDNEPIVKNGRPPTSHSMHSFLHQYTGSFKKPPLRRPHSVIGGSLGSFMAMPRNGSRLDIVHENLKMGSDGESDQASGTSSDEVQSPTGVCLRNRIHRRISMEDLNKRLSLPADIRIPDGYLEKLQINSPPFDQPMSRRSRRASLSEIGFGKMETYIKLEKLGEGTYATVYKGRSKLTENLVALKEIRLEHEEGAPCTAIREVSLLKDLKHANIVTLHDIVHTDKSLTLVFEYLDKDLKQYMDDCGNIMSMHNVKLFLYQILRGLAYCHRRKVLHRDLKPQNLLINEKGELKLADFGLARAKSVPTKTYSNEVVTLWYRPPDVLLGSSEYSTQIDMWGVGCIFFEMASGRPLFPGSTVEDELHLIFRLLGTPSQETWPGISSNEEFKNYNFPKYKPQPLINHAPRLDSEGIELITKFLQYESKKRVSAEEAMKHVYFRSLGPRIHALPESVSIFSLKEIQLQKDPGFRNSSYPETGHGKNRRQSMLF

CK1d = CK1d (Homo sapiens, UniProt P48730)
SGK3 = SGK3 (Homo sapiens, UniProt Q96BR1)
MST1 = MST1 (Homo sapiens, UniProt Q13043)
CDK9 = CDK9 (Homo sapiens, UniProt P50750)
ZAP70 = ZAP70 (Homo sapiens, UniProt P43403)
IKKa = IKKa (Homo sapiens, UniProt O15111)
KIT = KIT (Homo sapiens, UniProt P10721)
WEE1 = WEE1 (Homo sapiens, UniProt P30291)
ABL2 = ABL2 (Homo sapiens, UniProt P42684)
Chain of ABL2 (P42684 whole entry): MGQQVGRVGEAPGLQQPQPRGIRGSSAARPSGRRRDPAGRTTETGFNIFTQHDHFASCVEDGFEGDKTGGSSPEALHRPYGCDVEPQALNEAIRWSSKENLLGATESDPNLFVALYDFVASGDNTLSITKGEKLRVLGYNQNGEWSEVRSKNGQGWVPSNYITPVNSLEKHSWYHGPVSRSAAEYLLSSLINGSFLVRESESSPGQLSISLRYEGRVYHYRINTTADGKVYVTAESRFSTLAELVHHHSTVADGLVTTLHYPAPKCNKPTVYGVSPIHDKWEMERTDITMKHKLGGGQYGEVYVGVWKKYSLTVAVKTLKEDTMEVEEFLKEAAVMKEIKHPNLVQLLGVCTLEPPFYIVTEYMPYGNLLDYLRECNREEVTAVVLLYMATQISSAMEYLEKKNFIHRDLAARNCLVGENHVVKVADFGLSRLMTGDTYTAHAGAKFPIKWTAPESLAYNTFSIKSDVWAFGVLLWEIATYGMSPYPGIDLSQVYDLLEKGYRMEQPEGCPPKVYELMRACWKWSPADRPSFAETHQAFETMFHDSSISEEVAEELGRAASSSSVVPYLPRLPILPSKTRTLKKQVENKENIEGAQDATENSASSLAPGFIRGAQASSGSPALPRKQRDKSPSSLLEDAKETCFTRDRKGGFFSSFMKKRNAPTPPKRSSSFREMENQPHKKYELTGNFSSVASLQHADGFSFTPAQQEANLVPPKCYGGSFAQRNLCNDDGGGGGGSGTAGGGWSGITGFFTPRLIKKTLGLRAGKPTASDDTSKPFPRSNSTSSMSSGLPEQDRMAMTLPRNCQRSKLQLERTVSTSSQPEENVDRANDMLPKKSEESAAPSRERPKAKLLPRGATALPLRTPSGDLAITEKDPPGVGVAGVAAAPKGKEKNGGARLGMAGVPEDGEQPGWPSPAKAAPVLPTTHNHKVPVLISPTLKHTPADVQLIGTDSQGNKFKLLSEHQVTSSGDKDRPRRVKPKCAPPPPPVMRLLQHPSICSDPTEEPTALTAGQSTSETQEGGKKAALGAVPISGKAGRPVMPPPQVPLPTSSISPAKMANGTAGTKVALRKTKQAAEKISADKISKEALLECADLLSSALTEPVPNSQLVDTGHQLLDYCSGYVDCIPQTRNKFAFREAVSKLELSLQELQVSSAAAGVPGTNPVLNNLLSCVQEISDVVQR

MATK = MATK (Homo sapiens, UniProt P42679)
EPHB3 = EPHB3 (Homo sapiens, UniProt P54753)
BUB1B = BUB1B (Homo sapiens, UniProt O60566)
HIPK3 = HIPK3 (Homo sapiens, UniProt Q9H422)
SNK = SNK (Homo sapiens, UniProt Q9NYY3)
PDK1 = PDK1 (Homo sapiens, UniProt O15530)
STK39 = STK39 (Homo sapiens, UniProt Q9UEW8)
INSR = INSR (Homo sapiens, UniProt P06213)
MARK3 = MARK3 (Homo sapiens, UniProt P27448)
SRC = SRC (Homo sapiens, UniProt P12931)
Chain of SRC (P12931 whole entry): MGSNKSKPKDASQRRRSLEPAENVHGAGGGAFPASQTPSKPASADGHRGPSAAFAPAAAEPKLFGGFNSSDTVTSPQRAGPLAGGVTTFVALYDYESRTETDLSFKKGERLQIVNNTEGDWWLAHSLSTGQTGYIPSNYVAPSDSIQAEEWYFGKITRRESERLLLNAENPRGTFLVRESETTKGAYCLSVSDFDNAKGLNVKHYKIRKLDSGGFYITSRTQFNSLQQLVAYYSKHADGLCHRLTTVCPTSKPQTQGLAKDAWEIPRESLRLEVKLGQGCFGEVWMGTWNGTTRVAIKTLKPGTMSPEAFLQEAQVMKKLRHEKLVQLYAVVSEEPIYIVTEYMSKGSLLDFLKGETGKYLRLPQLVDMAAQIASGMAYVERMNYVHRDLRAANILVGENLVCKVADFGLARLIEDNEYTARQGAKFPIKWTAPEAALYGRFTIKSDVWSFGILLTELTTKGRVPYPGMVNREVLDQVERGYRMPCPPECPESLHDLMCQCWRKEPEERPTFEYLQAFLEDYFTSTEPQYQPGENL

NEK3 = NEK3 (Homo sapiens, UniProt P51956)
PAK6 = PAK6 (Homo sapiens, UniProt Q9NQU5)
Chain of PAK6 (Q9NQU5 whole entry): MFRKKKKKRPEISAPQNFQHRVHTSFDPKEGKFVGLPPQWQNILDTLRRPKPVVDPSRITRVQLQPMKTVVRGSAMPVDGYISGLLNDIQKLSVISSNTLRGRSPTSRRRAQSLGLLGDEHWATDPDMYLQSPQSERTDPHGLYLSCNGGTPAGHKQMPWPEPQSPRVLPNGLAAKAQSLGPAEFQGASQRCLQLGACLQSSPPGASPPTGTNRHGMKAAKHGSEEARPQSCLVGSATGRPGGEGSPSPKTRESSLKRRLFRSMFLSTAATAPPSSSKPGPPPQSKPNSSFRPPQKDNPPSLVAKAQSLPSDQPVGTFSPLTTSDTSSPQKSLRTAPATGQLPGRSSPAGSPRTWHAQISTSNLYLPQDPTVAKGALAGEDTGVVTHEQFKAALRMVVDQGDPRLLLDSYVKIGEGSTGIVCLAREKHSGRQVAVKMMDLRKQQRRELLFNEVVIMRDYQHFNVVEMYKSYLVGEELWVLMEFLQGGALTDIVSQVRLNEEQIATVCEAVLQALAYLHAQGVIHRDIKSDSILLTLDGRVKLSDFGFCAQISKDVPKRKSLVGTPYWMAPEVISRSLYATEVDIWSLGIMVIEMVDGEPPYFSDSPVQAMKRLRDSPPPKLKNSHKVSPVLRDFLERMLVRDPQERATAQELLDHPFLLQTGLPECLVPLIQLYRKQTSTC

Chain of EPHA8 (P29322 whole entry): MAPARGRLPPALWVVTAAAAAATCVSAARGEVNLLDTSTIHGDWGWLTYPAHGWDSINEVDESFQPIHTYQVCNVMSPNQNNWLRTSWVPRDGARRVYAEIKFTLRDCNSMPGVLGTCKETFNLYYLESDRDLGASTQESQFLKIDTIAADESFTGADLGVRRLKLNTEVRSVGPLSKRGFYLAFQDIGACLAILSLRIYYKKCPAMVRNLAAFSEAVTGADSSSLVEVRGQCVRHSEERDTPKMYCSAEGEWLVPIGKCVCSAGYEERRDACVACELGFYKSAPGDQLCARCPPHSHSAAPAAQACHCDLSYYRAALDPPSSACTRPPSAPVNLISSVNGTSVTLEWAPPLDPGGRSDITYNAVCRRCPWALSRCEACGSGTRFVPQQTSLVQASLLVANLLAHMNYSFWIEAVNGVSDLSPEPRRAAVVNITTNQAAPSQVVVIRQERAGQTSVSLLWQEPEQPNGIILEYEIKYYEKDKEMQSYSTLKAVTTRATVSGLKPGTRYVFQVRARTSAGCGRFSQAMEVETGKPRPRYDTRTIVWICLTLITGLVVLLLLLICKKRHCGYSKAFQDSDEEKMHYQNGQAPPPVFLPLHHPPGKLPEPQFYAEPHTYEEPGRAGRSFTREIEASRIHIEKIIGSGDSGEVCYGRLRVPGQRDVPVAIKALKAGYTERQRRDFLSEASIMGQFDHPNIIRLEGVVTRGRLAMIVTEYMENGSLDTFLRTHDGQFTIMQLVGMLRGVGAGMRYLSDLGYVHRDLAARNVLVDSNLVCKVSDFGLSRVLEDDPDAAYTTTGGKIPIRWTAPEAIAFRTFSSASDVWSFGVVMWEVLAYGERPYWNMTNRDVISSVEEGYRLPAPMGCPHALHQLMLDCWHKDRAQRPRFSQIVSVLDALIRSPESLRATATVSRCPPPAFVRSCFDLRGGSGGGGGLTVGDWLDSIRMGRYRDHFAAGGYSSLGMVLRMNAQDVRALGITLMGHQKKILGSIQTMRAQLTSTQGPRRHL
Chain of BRSK2 (Q8IWQ3 whole entry): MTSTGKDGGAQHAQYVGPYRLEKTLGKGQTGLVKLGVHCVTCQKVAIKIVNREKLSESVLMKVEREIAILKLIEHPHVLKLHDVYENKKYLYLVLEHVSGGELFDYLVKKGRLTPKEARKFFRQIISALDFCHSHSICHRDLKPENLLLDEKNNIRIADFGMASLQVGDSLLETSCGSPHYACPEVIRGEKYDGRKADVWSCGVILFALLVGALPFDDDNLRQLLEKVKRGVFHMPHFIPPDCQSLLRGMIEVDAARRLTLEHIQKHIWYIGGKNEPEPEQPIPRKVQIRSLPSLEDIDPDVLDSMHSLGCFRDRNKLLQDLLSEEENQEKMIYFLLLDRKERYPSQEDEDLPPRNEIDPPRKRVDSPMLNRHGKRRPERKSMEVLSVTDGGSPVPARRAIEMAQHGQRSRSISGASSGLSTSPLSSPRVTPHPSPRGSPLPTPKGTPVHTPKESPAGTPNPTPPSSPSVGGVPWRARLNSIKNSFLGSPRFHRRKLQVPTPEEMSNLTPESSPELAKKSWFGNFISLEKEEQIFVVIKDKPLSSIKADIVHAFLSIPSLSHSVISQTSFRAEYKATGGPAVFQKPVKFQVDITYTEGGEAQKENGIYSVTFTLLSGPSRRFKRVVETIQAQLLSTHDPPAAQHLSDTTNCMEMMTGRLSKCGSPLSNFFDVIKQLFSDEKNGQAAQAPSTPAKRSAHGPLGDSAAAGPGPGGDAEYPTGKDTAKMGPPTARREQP
Chain of CK1a (P48729 whole entry): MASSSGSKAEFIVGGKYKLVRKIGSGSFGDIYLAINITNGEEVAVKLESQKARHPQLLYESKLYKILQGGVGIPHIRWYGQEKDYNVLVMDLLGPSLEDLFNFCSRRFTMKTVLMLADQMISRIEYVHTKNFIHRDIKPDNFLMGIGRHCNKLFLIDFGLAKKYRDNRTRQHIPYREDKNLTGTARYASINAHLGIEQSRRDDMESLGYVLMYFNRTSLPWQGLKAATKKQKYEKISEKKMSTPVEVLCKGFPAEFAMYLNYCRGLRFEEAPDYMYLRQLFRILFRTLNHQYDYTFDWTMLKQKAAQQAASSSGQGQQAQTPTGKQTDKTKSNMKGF

- 21c Remaining activity, percent of control [%] (BRSK2): 97.8%
- 21c Remaining activity, percent of control [%] (HRI): 98.2%
- 21c Remaining activity, percent of control [%] (CK1a): 102.0%
- 21c Remaining activity, percent of control [%] (MKK4): 127.3%
- 21c Remaining activity, percent of control [%] (EPHA8): 112.4%
- 21c Remaining activity, percent of control [%] (MAP3K10): 94.4%
- 21c Remaining activity, percent of control [%] (DAPK2): 100.3%
- 21c Remaining activity, percent of control [%] (p38g): 88.6%
- 21c Remaining activity, percent of control [%] (WNK2): 94.8%
- 21c Remaining activity, percent of control [%] (CDK17): 70.9%
- 21c Remaining activity, percent of control [%] (CK1d): 98.8%
- 21c Remaining activity, percent of control [%] (SGK3): 96.1%
- 21c Remaining activity, percent of control [%] (MST1): 105.6%
- 21c Remaining activity, percent of control [%] (CDK9): 83.3%
- 21c Remaining activity, percent of control [%] (ZAP70): 108.6%
- 21c Remaining activity, percent of control [%] (IKKa): 80.7%
- 21c Remaining activity, percent of control [%] (KIT): 69.4%
- 21c Remaining activity, percent of control [%] (WEE1): 88.0%
- 21c Remaining activity, percent of control [%] (ABL2): 84.2%
- 21c Remaining activity, percent of control [%] (MATK): 78.6%
- 21c Remaining activity, percent of control [%] (EPHB3): 105.4%
- 21c Remaining activity, percent of control [%] (BUB1B): 101.6%
- 21c Remaining activity, percent of control [%] (HIPK3): 90.8%
- 21c Remaining activity, percent of control [%] (SNK): 78.3%
- 21c Remaining activity, percent of control [%] (PDK1): 99.5%
- 21c Remaining activity, percent of control [%] (STK39): 49.5%
- 21c Remaining activity, percent of control [%] (INSR): 98.0%
- 21c Remaining activity, percent of control [%] (MARK3): 101.1%
- 21c Remaining activity, percent of control [%] (SRC): 94.8%
- 21c Remaining activity, percent of control [%] (NEK3): 94.1%
- 21c Remaining activity, percent of control [%] (PAK6): 95.0%
SMILES: O=C1NCCCCCNc2nc(c3ccccc3n2)Nc2cc1[nH]n2 [21c, (Z)-3^1H-2,5,11-triaza-1(4,2)-quinazolina-3(3,5)-pyrazolacycloundecaphan-4-one]

From paper doi:10.1101/2023.10.20.563248v1 (biorxiv, 2023)
